# Experiments:
# [1] = test system: antibody-forming spleen cells; assay: Number of antibody-forming spleen cells by Jerne's method after intravenous administration; assay type: in vivo, mice; conditions: three days; for number of antibody-forming spleen cells: mice immunized with sheep erythrocytes, control 4,600; for antibody-forming spleen cells, % of the control: mice
# Description: 20 male white mice with a body weight of 20 to 25 g were each immunized with 1 ml preserved sheep erythrocytes (1 ml contains 5 × 10^8 erythrocytes). On the same day, 4-imino-1,3-diazabicyclo[3.1.0]hexan-2-oneor a comparative active material, dissolved in 5 ml physiological saline/kg. mouse body weight, were administered intravenously. For control purposes, 20 animals were also immunized with 1 ml sheep erythrocytes and treated with 5 ml/kg physiological saline. Three days after administration, the spleens of the animals were removed under sterile conditions and the number of antibody-forming spleen cells determined according to Jerne's technique. The individual values were determined.
# leukocytes = assay: Immunity-stimulating action: corpuscular blood components (leukocytes, lymphocytes, erythrocytes) after a single intravenous administration; assay type: in vivo, Sprague-Dawley rats; conditions: for number of leukocytes/mm^3: third day, control 7,300
# Description: The active material, dissolved in 5 ml physiological saline, was administered intravenously into a vein in the tails of 8 Sprague-Dawley rats with an average body weight of 200 to 250 g. As controls, there were used 8 rats which were only treated with 5 ml physiological saline per kg. body weight. In the following days, 1 to 2 drops of blood were taken from a tail vein and the corpuscular blood components determined. The average values were determined statistically from the 8 values of the individual animals.
# Walker sarcoma 256 = assay: Cancerostatic effectiveness: inhibition of tumor growth of Walker sarcoma 256 after a single administration; assay type: in vivo, Sprague-Dawley rats; conditions: for % inhibition of the growth of Walker sarcoma 256: single administration, tumor weight after 10 days
# Description: Sprague-Dawley rats with a body weight of 80 to 120 g and an age of 6 to 8 weeks were subcutaneously inoculated in the neck with tumor cells. In each case, there was used 0.1 ml of an aqueous suspension of about 10^6 tumor cells of the Walker sarcoma 256 (solid, rat).
# 4-Imino-1,3-diazabicyclo[3.1.0]hexan-2-one was dissolved in physiological saline solution (in each case, the desired amount in 5 ml solution/kg body weight of experimental animal). 6 Hours after inoculation of the animals, these solutions were administered intravenously or orally by means of a stomach tube. The control animals received 5 ml/kg body weight of physiological saline. 20 experimental animals and 20 control animals were used per experiment. The animals were sacrificed with ether after 10 days, the tumors extirpated and the weight of the tumors of the control group compared with those of the experimental group.
# in vivo = conditions: mouse, iv
# [2] = Solubility in water, physiological saline and aqueous alkali metal hydroxide solutions; assay type: physicochemical
# [3] = Acute toxicity (LD50), rats; conditions: rat, in vivo, single intravenous dose
# [4] = Acute toxicity (LD50), mice; conditions: mouse, in vivo, po
# Stability = assay type: physicochemical
# [5] = single intravenous, rats, in words
compound,measurement,setting,value
phytohaemagglutinin,number of antibody-forming spleen cells,[1]; 500.0 mg/kg intravenous,"1,400 spleen cells"
same,"antibody-forming spleen cells, % of the control",[1]; 500.0 mg/kg intravenous,30 % of the control
"N=C1NC(=O)N2CC12 (centres unmarked) [4-imino-1,3-diazabicyclo-[3.1.0]hexan-2-one]",number of leukocytes/mm^3,"leukocytes; 2 mg/kg rat, single intravenous","10,300 leukocytes/mm^3"
same,number of leukocytes/mm^3,"leukocytes; 5 mg/kg rat, single intravenous","9,800 leukocytes/mm^3"
same,number of leukocytes/mm^3,"leukocytes; 10 mg/kg rat, single intravenous","10,800 leukocytes/mm^3"
same,number of leukocytes/mm^3,"leukocytes; 20 mg/kg rat, single intravenous","12,300 leukocytes/mm^3"
same,number of leukocytes/mm^3,"leukocytes; 40 mg/kg rat, single intravenous","10,800 leukocytes/mm^3"
same,number of leukocytes/mm^3,"leukocytes; 75 mg/kg rat, single intravenous","11,800 leukocytes/mm^3"
same,number of leukocytes/mm^3,"leukocytes; 150 mg/kg rat, single intravenous","8,000 leukocytes/mm^3"
same,number of leukocytes/mm^3,"leukocytes; 400 mg/kg rat, single intravenous","6,500 leukocytes/mm^3"
same,dosage necessary for immunity stimulation,"leukocytes; deduced from the experiments, all at once or in several doses",1 to 50 mg/kg body weight
same,time after which the effect slowly decreases,leukocytes; immunity stimulation,about 2 weeks
same,number of leukocytes,leukocytes; [5],increased considerably
same,percentage proportion of the lymphocytes,leukocytes; [5],increased
same,number of erythrocytes,"leukocytes; single intravenous, rats, whole experimental period",did not change significantly
same,time until the values of the control animals were again reached,"leukocytes; single intravenous, rats, only after the expiry of",20 to 25 days
same,tumor growth,Walker sarcoma 256; intravenous and oral administration,significantly inhibited
same,% inhibition of the growth of Walker sarcoma 256,"Walker sarcoma 256; intravenous, 0.1 mg/kg",7.5%
same,% inhibition of the growth of Walker sarcoma 256,"Walker sarcoma 256; intravenous, 1.0 mg/kg",17.5%
same,% inhibition of the growth of Walker sarcoma 256,"Walker sarcoma 256; intravenous, 10.0 mg/kg",49.5%
same,% inhibition of the growth of Walker sarcoma 256,"Walker sarcoma 256; intravenous, 100.0 mg/kg",31.0%
same,% inhibition of the growth of Walker sarcoma 256,"Walker sarcoma 256; intravenous, 200.0 mg/kg",39.5%
same,% inhibition of the growth of Walker sarcoma 256,"Walker sarcoma 256; oral, 5.0 mg/kg",20.0%
same,% inhibition of the growth of Walker sarcoma 256,"Walker sarcoma 256; oral, 125.0 mg/kg",62.0%
same,number of antibody-forming spleen cells,[1]; 2.5 mg/kg intravenous,"23,000 spleen cells"
same,"antibody-forming spleen cells, % of the control",[1]; 2.5 mg/kg intravenous,500 % of the control
same,LD50,in vivo,750 mg/kg
same,water solubility,[2],good water solubility
same,solubility,[2]; physiological saline and aqueous alkali metal hydroxide solutions,very readily soluble
same,LD50,[3],660 mg/kg
same,LD50,[4],> 4000 mg/kg
same,acid stability,Stability; acid,acid labile
same,stability in dry form,Stability; dry form,stable in dry form
O=P1(N(CCCl)CCCl)NCCCO1 (centres unmarked) [cyclophosphamide],number of antibody-forming spleen cells,[1]; 125.0 mg/kg intravenous,460 spleen cells
same,"antibody-forming spleen cells, % of the control",[1]; 125.0 mg/kg intravenous,10 % of the control

# Reference: patent US4083987A, “4-Imino-1,3-diazabicyclo-(3.1.0)-hexan-2-one as a cancerostat and immuno-stimulant” (Boehringer Mannheim GmbH, priority 1975, dated 1978)
